Data published in a polymer gas permeability compilation.

SMILES | CH4 permeability | CO2 permeability | N2 permeability | O2 permeability | H2 permeability
*/N=C1/c2cc(C(c3ccc4c(c3)C(=O)n3c-4nc4c(Oc5ccc(*)c(*)c5)cccc43)(C(F)(F)F)C(F)(F)F)ccc2C(=O)N1* (repeat unit) | 0.54 Barrer | 27.6 Barrer | 1.22 Barrer | 7.9 Barrer | –
*=CC1CC(C=*)C2C(=O)N(C34CC5CC(CC(C5)C3)C4)C(=O)C12 (repeat unit) | 0.58 Barrer | 8.39 Barrer | 0.5 Barrer | 1.59 Barrer | 12.8 Barrer
*=CC1CC(C=*)C2C(=O)N(C3CCCC3)C(=O)C12 (repeat unit) | 0.54 Barrer | 8.8 Barrer | 0.45 Barrer | 1.95 Barrer | –
*=CC1CC(C=*)C2C(=O)N(C3CCCCC3)C(=O)C12 (repeat unit) | 0.8 Barrer | 13.7 Barrer | 0.52 Barrer | 2.21 Barrer | 16.1 Barrer
*=CC1CC(C=*)C2C(=O)N(c3ccccc3)C(=O)C12 (repeat unit) | 0.54 Barrer | 11.4 Barrer | 0.31 Barrer | 1.44 Barrer | 11 Barrer
*=CC1CC(C=*)C2C1C([Si](O[Si](C)(C)C)(O[Si](C)(C)C)O[Si](C)(C)C)C2[Si](O[Si](C)(C)C)(O[Si](C)(C)C)O[Si](C)(C)C (repeat unit) | 300 Barrer | 1160 Barrer | 100 Barrer | 295 Barrer | 690 Barrer
*C(C)=C(*)CCCCCC (repeat unit) | 64 Barrer | 230 Barrer | 23 Barrer | 60 Barrer | 140 Barrer
*C(C)=C(*)CCCCCCC (repeat unit) | 83.5 Barrer | 290 Barrer | 29 Barrer | 72.5 Barrer | 145 Barrer
*C(C)=C(*)c1ccccc1 (repeat unit) | 5.2 Barrer | 174 Barrer | 12.2 Barrer | 36.8 Barrer | 199 Barrer
*C(F)(F)C1(F)OC(F)(F)C(F)(F)C1(F)C(*)(F)F (repeat unit) | 2 Barrer | 35 Barrer | 5 Barrer | 16 Barrer | 59 Barrer
*C/C(C)=C(\C)C* (repeat unit) | 0.786 Barrer | 7.47 Barrer | 0.472 Barrer | 2.1 Barrer | 17 Barrer
*C/C=C(/C)C* (repeat unit) | 29.6 Barrer | 153 Barrer | 8.75 Barrer | 23.3 Barrer | 49 Barrer
*C/C=C(/Cl)C* (repeat unit) | 3.28 Barrer | 25.6 Barrer | 2.07 Barrer | 4 Barrer | 20.6 Barrer
*C1C(*)C2CC1C1CC([Si](C)(C)C)C21 (repeat unit) | 1010 Barrer | 5300 Barrer | 390 Barrer | 990 Barrer | 2060 Barrer
*C1C(*)C2CC1C1C[CH]([Ge]([CH3])([CH3])[CH3])C21 (repeat unit) | 620 Barrer | – | – | – | –
*C=C(*)C(C)(C)C (repeat unit) | 85 Barrer | 560 Barrer | 43 Barrer | 130 Barrer | –
*C=CCCC* (repeat unit) | 430 Barrer | 2000 Barrer | 100 Barrer | 310 Barrer | 415 Barrer
*CC(*)(C)C(=O)OC (repeat unit) | 0.00565 Barrer | 0.35 Barrer | 0.0113 Barrer | 0.0885 Barrer | 4.1 Barrer
*CC(*)(C)C(=O)OC(C)(C)C (repeat unit) | 0.719 Barrer | 15.1 Barrer | 0.768 Barrer | 4.53 Barrer | 62.2 Barrer
*CC(*)(C)C(=O)OCCOCCOCC (repeat unit) | 11.4 Barrer | 133 Barrer | 3.6 Barrer | 11.4 Barrer | –
*CC(*)(C)C(=O)OCCOCCOCCOCC (repeat unit) | 4.8 Barrer | 74.4 Barrer | 2 Barrer | 3.9 Barrer | –
*CC(*)C(=O)OCC(F)(F)C(F)(F)C(F)(F)C(F)(F)C(F)(F)C(F)(F)C(F)(F)F (repeat unit) | 57 Barrer | 520 Barrer | 54 Barrer | 135 Barrer | 300 Barrer
*CC(*)C(=O)OCCCCCCCCCCCCCC (repeat unit) | 65.1 Barrer | 297 Barrer | 22.1 Barrer | 57.1 Barrer | 96.2 Barrer
*CC(*)Cl (repeat unit) | 0.0263 Barrer | 0.16 Barrer | 0.0109 Barrer | 0.0453 Barrer | 1.79 Barrer
*CC(*)OC(=O)c1cccc(C)c1 (repeat unit) | 0.118 Barrer | 2.13 Barrer | 0.0875 Barrer | 0.496 Barrer | –

SMILES | CH4 permeability | CO2 permeability | N2 permeability | O2 permeability | H2 permeability
*CC(*)OC(=O)c1ccccc1C (repeat unit) | 0.115 Barrer | 2.23 Barrer | 0.0859 Barrer | 0.47 Barrer | –
*CC(*)c1ccc(Br)cc1 (repeat unit) | 0.48 Barrer | 8.5 Barrer | 0.32 Barrer | 1.9 Barrer | –
*CC(*)c1ccc(C(C)(C)C)cc1 (repeat unit) | 16.7 Barrer | 140 Barrer | 8.4 Barrer | 35.5 Barrer | –
*CC(*)c1ccc(C[Si](C)(C)C)cc1 (repeat unit) | 7.8 Barrer | 79.8 Barrer | – | 19.9 Barrer | 54 Barrer
*CC(*)c1ccc(F)cc1 (repeat unit) | 1.06 Barrer | 17.2 Barrer | 0.83 Barrer | 4.4 Barrer | –
*CC(*)c1ccc(S(=O)(=O)[O-])cc1 (repeat unit) | 0.119 Barrer | 4.15 Barrer | 0.101 Barrer | 0.845 Barrer | 10.8 Barrer
*CC(*)c1ccc([Si](C)(C)CCCC(F)(F)F)cc1 (repeat unit) | 22 Barrer | 284 Barrer | 11.8 Barrer | 38.1 Barrer | 109 Barrer
*CC(*)c1ccccc1 (repeat unit) | 0.785 Barrer | 12.4 Barrer | 0.53 Barrer | 2.9 Barrer | 26.1 Barrer
*CC(*)c1ccncc1 (repeat unit) | 0.14 Barrer | 3.31 Barrer | 0.13 Barrer | 0.84 Barrer | 12.6 Barrer
*CC(C)C(=O)OCCOC(=O)C(C)C* (repeat unit) | 4.8 Barrer | 95 Barrer | 1.6 Barrer | 4.7 Barrer | 15 Barrer
*CC(C)O* (repeat unit) | 34 Barrer | 190 Barrer | 11 Barrer | 28 Barrer | 42 Barrer
*CC(O)C* (repeat unit) | 0.019 Barrer | 0.4 Barrer | 0.015 Barrer | 0.1 Barrer | –
*CC=C(C*)[Si](C)(C)OC(C)C (repeat unit) | 3.1 Barrer | 23.2 Barrer | 1.5 Barrer | 6 Barrer | –
*CC=C(C*)[Si](C)(OC(C)C)OC(C)C (repeat unit) | 63.2 Barrer | 345 Barrer | 25.4 Barrer | 69.2 Barrer | –
*CC=C(C*)[Si](OC(C)C)(OC(C)C)OC(C)C (repeat unit) | 263 Barrer | 1230 Barrer | 109 Barrer | 247 Barrer | –
*CCO* (repeat unit) | 4.85 Barrer | 40.5 Barrer | 1.32 Barrer | 4.34 Barrer | 6.9 Barrer
*CN1CN(*)Cc2cc3c(cc21)C1c2ccccc2C3c2cc(*)c(*)cc21 (repeat unit) | 562 Barrer | 6830 Barrer | 409 Barrer | 1900 Barrer | 6390 Barrer
*CN1CN(*)c2cc3c(cc21)C1(C)CCC3(C)c2cc(*)c(*)cc21 (repeat unit) | 222 Barrer | – | 187 Barrer | 933 Barrer | 4440 Barrer
*C[Si](*)(C)C (repeat unit) | 130 Barrer | 549 Barrer | 38 Barrer | 99 Barrer | –
*Nc1c(C)cc(Cc2cc(C)c(NC(=O)c3ccc(Oc4cc(C(C)(C)C)c(Oc5ccc(C(*)=O)cc5)cc4C(C)(C)C)cc3)c(C(C)C)c2)cc1C(C)C (repeat unit) | 1.21 Barrer | 27 Barrer | 1.18 Barrer | 6.47 Barrer | –
*Nc1ccc(*)cc1 (repeat unit) | 0.0094 Barrer | 0.67 Barrer | 0.0165 Barrer | 0.135 Barrer | 3.66 Barrer
*Nc1ccc(C(C)(C)c2ccc(NC(=O)c3ccc(Oc4cc(C(C)(C)C)c(Oc5ccc(C(*)=O)cc5)cc4C(C)(C)C)cc3)c(C)c2)cc1C (repeat unit) | 0.9 Barrer | 21 Barrer | 0.81 Barrer | 4.5 Barrer | –
*Nc1ccc(C(C)(C)c2ccc(NC(=O)c3ccc(Oc4cc(C(C)(C)C)c(Oc5ccc(C(*)=O)cc5)cc4C(C)(C)C)cc3)cc2)cc1 (repeat unit) | 0.47 Barrer | 13 Barrer | 0.46 Barrer | 3.11 Barrer | –
*Nc1ccc(C(c2ccc(NC(=O)c3cc(C(*)=O)cc(-c4ccccc4)c3)cc2)(C(F)(F)F)C(F)(F)F)cc1 (repeat unit) | 0.78 Barrer | 21 Barrer | 1.2 Barrer | 5.5 Barrer | 42 Barrer
*Nc1ccc(Cc2ccc(NC(=O)CN3C(=O)c4ccc(C(*)=O)cc4C3=O)cc2)cc1 (repeat unit) | 0.01 Barrer | 0.264 Barrer | 0.017 Barrer | 0.065 Barrer | –
